Reference: US20110257208A1, “COMPOUNDS USEFUL AS FAAH MODULATORS AND USES THEREOF” (priority 2008, published 2011)

target: T1, hFAAH (Homo sapiens, UniProt O00519); assay: Fluorimetric assay with hFAAH microsomes (enzymatic, fluorescence based); type: biochemical; conditions: compound at 1 uM, AA-AMC substrate
T1 construct: expressed in transfected cells; host or cells: HEK293-TRex (Invitrogen) stably transfected with hFAAH in the pcDNA5-Tet-off vector, or T84 human colon epithelial cells (endogenous hFAAH); used as a microsomal preparation
T1 sequence (O00519 1-579): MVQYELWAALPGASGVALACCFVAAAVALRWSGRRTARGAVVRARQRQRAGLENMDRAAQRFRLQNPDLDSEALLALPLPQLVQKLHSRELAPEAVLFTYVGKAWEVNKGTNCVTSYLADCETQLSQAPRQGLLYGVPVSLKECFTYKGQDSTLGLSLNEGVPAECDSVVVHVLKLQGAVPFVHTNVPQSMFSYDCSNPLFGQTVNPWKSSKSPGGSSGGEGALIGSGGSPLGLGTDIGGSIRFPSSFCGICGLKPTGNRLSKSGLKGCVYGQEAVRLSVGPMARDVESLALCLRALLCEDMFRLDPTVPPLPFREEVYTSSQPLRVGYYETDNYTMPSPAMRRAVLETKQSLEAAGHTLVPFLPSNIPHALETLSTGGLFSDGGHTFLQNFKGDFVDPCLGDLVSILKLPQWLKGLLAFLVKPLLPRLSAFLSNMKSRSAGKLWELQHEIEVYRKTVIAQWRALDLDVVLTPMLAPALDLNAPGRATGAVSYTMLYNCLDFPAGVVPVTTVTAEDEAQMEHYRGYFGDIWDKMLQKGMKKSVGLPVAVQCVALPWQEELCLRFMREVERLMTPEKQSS
Method: Human cell line T84 (human colon epithelial cells), which expresses endogenous hFAAH, or HEK293-TRex cells (Invitrogen) stably transfected with hFAAH in the pcDNA5-Tet-off vector are cultured in medium containing DMEM, 10% FBS penicillin/streptomycin, glutamax, 200 μg/ml hygromycin and 0.5 μg/ml blasticidin. Cell collection is done 24 h after induction with doxycycline by first washing the cells with cold PBS and then incubating them with Versene before centrifugation. Cell pellets are then stored at −80° C. until needed. For homogenization, the cell pellets are thawed on ice […] and resuspended in homogenization buffer (50 mM HEPES (pH 7.4), 1 mM EDTA, 1 μM Pepstatin A, 100 μM Leupeptin, 0.1 mg/mL aprotinin). Cell suspensions are then homogenized on ice using the Polytron 1200 C at setting 6 for three 30-second intervals with 30-second rests. The suspension is centrifuged at 1000 g for 10 minutes at 4° C. and the supernatant is collected and further centrifuged at 24000 rpm for 30 minutes at 4° C. using an ultracentrifuge. Pellets are resuspended by adding in cold microsomal buffer (50 mM HEPES (pH 7.4) and 1 mM EDTA) and sheared through a 23-gauge needle five times, keeping the suspension on ice. Protein concentrations are determined using the BCA assay and aliquoted preparations are stored at −80° C. until needed.
Compound potency against hFAAH is determined using an enzymatic assay with a fluorescence readout. Briefly, experiments were carried out in a 96-well plate format (Corning Costar, # 3370) with a total well volume of 160 μL with components added in the following order: assay buffer (50 mM HEPES (pH 7.4), 1 mM EDTA, 1.4 mg/mL BSA), compound solutions (7 different concentrations per compound in duplicate), microsomal enzyme preparation (10 μg per well) and substrate [AA-AMC (arachadonyl 7-amino 4-methyl coumarin amide), 2 μM]. After a brief shaking, a kinetic read of the plate is obtained using a Tecan Safire II in kinetic mode for 275 cycles with excitation and emission wavelengths of 355 and 460 nm, respectively. Raw data is then processed and analyzed using Assay Explorer and GraphPad Prism.
The following compounds have been or can be prepared according to the methods of the invention. An enzymatic (fluorescence based) assay is performed as described above. In Table 1, activity of each compound is expressed as follows: • ++++ % Inhibition >75% • +++ % Inhibition >50% • ++ % Inhibition >25% • + % Inhibition <25%

Row | SMILES | inhibition at 1 µM [%]
1 | CCCC(C)N1Cc2ncnc(Nc3cnc4ccccc4c3)c2C1 (centres unmarked) [Compound 42, [6-(1-Methyl-butyl)-6,7-dihydro-5H-pyrrolo[3,4-d]pyrimidin-4-yl]-quinolin-3-yl-amine] | > 25
2 | Cc1cccc(CN2Cc3ncnc(Nc4cnc5ccccc5c4)c3C2)c1C [Compound 87, [6-(2,3-Dimethyl-benzyl)-6,7-dihydro-5H-pyrrolo[3,4-d]pyrimidin-4-yl]-quinolin-3-yl-amine] | > 75
3 | FC(F)(F)CCN1Cc2ncnc(Nc3cnc4ccccc4c3)c2C1 [Compound 31, Quinolin-3-yl-[6-(3,3,3-trifluoro-propyl)-6,7-dihydro-5H-pyrrolo[3,4-d]pyrimidin-4-yl]-amine] | > 50
4 | c1ccc2ncc(Nc3ncnc4c3CN(CC3CCC3)C4)cc2c1 [Compound 21, (6-Cyclobutylmethyl-6,7-dihydro-5H-pyrrolo[3,4-d]pyrimidin-4-yl)-quinolin-3-yl-amine] | > 50
5 | CCCCCN1Cc2ncnc(Nc3cnc4ccccc4c3)c2C1 [Compound 10, (6-Pentyl-6,7-dihydro-5H-pyrrolo[3,4-d]pyrimidin-4-yl)-quinolin-3-yl-amine] | > 50
6 | Cc1cnccc1CN1Cc2ncnc(Nc3cnc4ccccc4c3)c2C1 [Compound 78, [6-(3-Methyl-pyridin-4-ylmethyl)-6,7-dihydro-5H-pyrrolo[3,4-d]pyrimidin-4-yl]-quinolin-3-yl-amine] | > 75
7 | c1ccc2ncc(Nc3ncnc4c3CN(C3CCCCCC3)C4)cc2c1 [Compound 40, (6-Cycloheptyl-6,7-dihydro-5H-pyrrolo[3,4-d]pyrimidin-4-yl)-quinolin-3-yl-amine] | > 25
8 | O=S(=O)(c1ccccc1Cl)N1Cc2ncnc(Nc3cnc4ccccc4c3)c2C1 [Compound 72, [6-(2-Chloro-benzenesulfonyl)-6,7-dihydro-5H-pyrrolo[3,4-d]pyrimidin-4-yl]-quinolin-3-yl-amine] | > 50
9 | O=S(=O)(c1ccc(-c2cnco2)s1)N1Cc2ncnc(Nc3cnc4ccccc4c3)c2C1 [Compound 55, [6-(5-Oxazol-5-yl-thiophene-2-sulfonyl)-6,7-dihydro-5H-pyrrolo[3,4-d]pyrimidin-4-yl]-quinolin-3-yl-amine] | > 25
10 | CC(C)N1Cc2ncnc(Nc3cnc4ccccc4c3)c2C1 [Compound 34, (6-Isopropyl-6,7-dihydro-5H-pyrrolo[3,4-d]pyrimidin-4-yl)-quinolin-3-yl-amine] | < 25
11 | c1ccc2ncc(Nc3ncnc4c3CN(CC3CCOCC3)C4)cc2c1 [Compound 33, Quinolin-3-yl-[6-(tetrahydro-pyran-4-ylmethyl)-6,7-dihydro-5H-pyrrolo[3,4-d]pyrimidin-4-yl]-amine] | > 75
12 | c1ccc(C2CC2)c(CN2Cc3ncnc(Nc4cnc5ccccc5c4)c3C2)c1 [Compound 112, [6-(2-Cyclopropyl-benzyl)-6,7-dihydro-5H-pyrrolo[3,4-d]pyrimidin-4-yl]-quinolin-3-yl-amine] | > 75
13 | c1ccc2ncc(Nc3ncnc4c3CN(Cc3cscn3)C4)cc2c1 [Compound 75, Quinolin-3-yl-(6-thiazol-4-ylmethyl-6,7-dihydro-5H-pyrrolo[3,4-d]pyrimidin-4-yl)-amine] | > 25
14 | c1ccc2ncc(Nc3ncnc4c3CN(CC3CCCOC3)C4)cc2c1 (centres unmarked) [Compound 16, Quinolin-3-yl-[6-(tetrahydro-pyran-3-ylmethyl)-6,7-dihydro-5H-pyrrolo[3,4-d]pyrimidin-4-yl]-amine] | > 50
15 | Cc1csc(CN2Cc3ncnc(Nc4cnc5ccccc5c4)c3C2)n1 [Compound 77, [6-(4-Methyl-thiazol-2-ylmethyl)-6,7-dihydro-5H-pyrrolo[3,4-d]pyrimidin-4-yl]-quinolin-3-yl-amine] | > 50
16 | CCc1ccccc1CN1Cc2ncnc(Nc3cnc4ccccc4c3)c2C1 [Compound 90, [6-(2-Ethyl-benzyl)-6,7-dihydro-5H-pyrrolo[3,4-d]pyrimidin-4-yl]-quinolin-3-yl-amine] | > 75
17 | Cc1cccnc1CN1Cc2ncnc(Nc3cnc4ccccc4c3)c2C1 [Compound 79, [6-(3-Methyl-pyridin-2-ylmethyl)-6,7-dihydro-5H-pyrrolo[3,4-d]pyrimidin-4-yl]-quinolin-3-yl-amine] | < 25
18 | OCCCCN1Cc2ncnc(Nc3cnc4ccccc4c3)c2C1 [Compound 20, 4-[4-(Quinolin-3-ylamino)-5,7-dihydro-pyrrolo[3,4-d]pyrimidin-6-yl]-butan-1-ol] | < 25
19 | CC(C)Oc1ccccc1CN1Cc2ncnc(Nc3cnc4ccccc4c3)c2C1 [Compound 109, [6-(2-Isopropoxy-benzyl)-6,7-dihydro-5H-pyrrolo[3,4-d]pyrimidin-4-yl]-quinolin-3-yl-amine] | > 50
20 | c1ccc2ncc(Nc3ncnc4c3CN(CC3CCSCC3)C4)cc2c1 [Compound 18, Quinolin-3-yl-[6-(tetrahydro-thiopyran-4-ylmethyl)-6,7-dihydro-5H-pyrrolo[3,4-d]pyrimidin-4-yl]-amine] | > 75
21 | COC(=O)c1cc(S(=O)(=O)N2Cc3ncnc(Nc4cnc5ccccc5c4)c3C2)oc1C [Compound 62, 2-Methyl-5-[4-(quinolin-3-ylamino)-5,7-dihydro-pyrrolo[3,4-d]pyrimidine-6-sulfonyl]-furan-3-carboxylic acid methyl ester] | > 25
22 | O=S(=O)(Cc1ccccc1)N1Cc2ncnc(Nc3cnc4ccccc4c3)c2C1 [Compound 63, (6-Phenylmethanesulfonyl-6,7-dihydro-5H-pyrrolo[3,4-d]pyrimidin-4-yl)-quinolin-3-yl-amine] | < 25
23 | c1ccc2ncc(Nc3ncnc4c3CN(C3CCC3)C4)cc2c1 [Compound 43, (6-Cyclobutyl-6,7-dihydro-5H-pyrrolo[3,4-d]pyrimidin-4-yl)-quinolin-3-yl-amine] | < 25
24 | c1ccc2ncc(Nc3ncnc4c3CN(Cc3ccnc5ccccc35)C4)cc2c1 [Compound 85, Quinolin-3-yl-(6-quinolin-4-ylmethyl-6,7-dihydro-5H-pyrrolo[3,4-d]pyrimidin-4-yl)-amine] | > 50
25 | Cc1nc(C)c(CN2Cc3ncnc(Nc4cnc5ccccc5c4)c3C2)s1 [Compound 28, [6-(2,4-Dimethyl-thiazol-5-ylmethyl)-6,7-dihydro-5H-pyrrolo[3,4-d]pyrimidin-4-yl]-quinolin-3-yl-amine] | > 75
26 | CCC(CC)CN1Cc2ncnc(Nc3cnc4ccccc4c3)c2C1 [Compound 14, [6-(2-Ethyl-butyl)-6,7-dihydro-5H-pyrrolo[3,4-d]pyrimidin-4-yl]-quinolin-3-yl-amine] | > 75
27 | O=C(NCC1CCCCC1)N1Cc2ncnc(Nc3cnc4ccccc4c3)c2C1 [Compound 46, 4-(Quinolin-3-ylamino)-5,7-dihydro-pyrrolo[3,4-d]pyrimidine-6-carboxylic acid cyclohexylmethyl-amide] | < 25
28 | FC(F)(F)Oc1cccc(CN2Cc3ncnc(Nc4cnc5ccccc5c4)c3C2)c1 [Compound 104, Quinolin-3-yl-[6-(3-trifluoromethoxy-benzyl)-6,7-dihydro-5H-pyrrolo[3,4-d]pyrimidin-4-yl]-amine] | > 75
29 | COc1cccc(CN2Cc3ncnc(Nc4cnc5ccccc5c4)c3C2)c1 [Compound 106, [6-(3-Methoxy-benzyl)-6,7-dihydro-5H-pyrrolo[3,4-d]pyrimidin-4-yl]-quinolin-3-yl-amine] | > 75
